Values of other authors in US7994258B2, “Hyperbranched polymer having nitroxyl group” (Nissan Chemical Industries, Ltd., priority 2007, dated 2011).

Conditions: comparison value, measuring conditions not stated

**Q.** With `O=C([O-])CN(CCN(CC(=O)[O-])CC(=O)O)CCN(CC(=O)[O-])CC(=O)O.[Gd+3]` [GdDTPA] as the compound, how does the “relaxivity (r1) of comparator” value read?
**A.** 4.0 mM⁻¹ s⁻¹
